Where a name gives a salt, the structure may show the parent alone.
These compounds were tested on MTT (mouse pheochromocytoma) (assay: IC50 of cell viability (ATP content)). Details: (24 or 48 h).
Method in brief: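 MTT mouse pheochromocytoma cells (5 µl of 200,000 cells/ml per well, white 1536-well plates, DMEM with 5% FBS and 1% horse serum) were cultured overnight at 37°C, 5% CO2. They then received 23 nl library compound in DMSO by pintool at 8 concentrations (final 0.5 nM to 46 µM) for 24 or 48 hrs. CellTiter-Glo ATP luminescence was read after 15 minutes. Signals were normalised to positive-control (100% inhibition) and DMSO (0%) wells, and IC50 came from a four-parameter logistic fit.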

IC50 of cell viability [µM] | SMILES
> 46 | C[C@H](C1=NC=CC=C1)C/2=C(CCN(C)C)/CC3=CC=CC=C23 [(S)-(+)-Dimethindene maleate]
> 46 | CCOC(=O)Nc1ccc2c(c1)N(C(=O)CCN1CCOCC1)c1ccccc1S2 [Moricizine hydrochloride]
> 46 | COc1cc(N[S+](=O)([O-])c2ccc(N)cc2)ncn1 [Sulfamonomethoxine]
> 46 | CN1CCN2c3ncccc3Cc3ccccc3C2C1 (centres undefined) [Mirtazapine]
> 46 | COc1ccc2c(c1)c(CC(=O)O)c(C)n2C(=O)c1ccc(Cl)cc1 [Indometacin]
> 46 | CNCc1ccccc1.Cl [N-METHYLBENZYLAMINE HYDROCHLORIDE]
> 46 | Nc1cccc2c(N)cccc12 [1,5-Diaminonaphthalene]
> 46 | CC(C)Oc1ccc2c(=O)c(-c3ccccc3)coc2c1 [Ipriflavone]
> 46 | O=C1NC(=O)C(c2ccccc2)(c2ccccc2)N1 [PHENYTOIN]
> 46 | C[C@@H](CN(C)C)CN1c2ccccc2CCc2ccccc21 [Trimipramine maleate salt]
> 46 | c1ccc2[nH]ccc2c1 [INDOLUM]
> 46 | CCCCC1C(=O)N(c2ccccc2)N(c2ccccc2)C1=O [PHENYLBUTAZONE]
> 46 | CC[N+](CC)(CC(=O)Nc1c(C)cccc1C)Cc1ccccc1.O=C([O-])c1ccccc1
> 46 | O=C(O)COc1ccc(C(=O)c2cccs2)c(Cl)c1Cl [Ticrynafen]
> 46 | Cn1cc(C(=O)[C@@H]2CCc3[nH]cnc3C2)c2ccccc21 [RAMOSETRON HYDROCHLORIDE]
> 46 | OCCc1ccccc1 [2-Phenylethanol]
> 46 | COc1cc2[nH]c(C)c(CCN3CCN(c4ccccc4)CC3)c2cc1OC [Equipertine hydrochloride]
> 46 | CN(C)CC[C@@H](c1ccc(Br)cc1)c1ccccn1 [Dexbrompheniramine maleate salt]
> 46 | CCCCC/1=N/C2(CCCC2)C(=O)N1CC3=CC=C(C=C3)C4=CC=CC=C4C5=NN=N[NH]5 [IRBESARTAN]
> 46 | CN(C)CCCN1c2ccccc2Sc2ccc(C(F)(F)F)cc21.Cl [TRIFLUPROMAZINE HYDROCHLORIDE]
> 46 | COc1ccccc1OCC(O)CN1CCN(CC(=O)Nc2c(C)cccc2C)CC1 (centres undefined) [RANOLAZINE]

The next lines start with the compound.

SMILES | IC50 of cell viability [µM]
COc1cc(Nc2c(C#N)cnc3cc(OCCCN4CCN(C)CC4)c(OC)cc23)c(Cl)cc1Cl [Bosutinib Methanoate] | > 46
O=C(O)c1ccc(OCCn2ccnc2)cc1 [DAZOXIBENUM] | > 46
CC(=O)[C@H]1CC[C@H]2[C@@H]3CC[C@H]4C[C@H](O)CC[C@]4(C)[C@H]3C(=O)C[C@]12C [5alpha-Pregnan-3alpha-ol-11,20-dione] | > 46
CCc1nnc(N[S+](=O)([O-])c2ccc(N)cc2)s1 [Sulfaethidole] | > 46
CCC(C)(C)c1ccc(O)cc1 [p-tert-Pentylphenol] | > 46
CC(/C=C/C=C(\C)C(=O)O[C@@H]1O[C@H](CO[C@@H]2O[C@H](CO)[C@@H](O)[C@H](O)[C@H]2O)[C@@H](O)[C@H](O)[C@H]1O)=C\C=C\C=C(C)\C=C\C=C(/C)C(=O)O[C@@H]1O[C@H](CO[C@@H]2O[C@H](CO)[C@@H](O)[C@H](O)[C@H]2O)[C@@H](O)[C@H](O)[C@H]1O [SAFFRON] | > 46
CC(C)OC(=O)C(\C(=O)OC(C)C)=C1\SC=CS1 [malotilate] | > 46
CCOc1ccc2nc([S+](N)(=O)[O-])sc2c1 [ETHOXZOLAMIDE] | > 46
CC(C)=CC1C(C(=O)OC\2CC(=O)\C(=C2C)CC=C)C1(C)C (centres undefined) [Allethrin] | > 46
CC(=O)NC[C@@H]1CN(c2ccc(N3CCOCC3)c(F)c2)C(=O)O1 [Linezolid] | > 46
O=C(O)COc1nc(Cl)c(Cl)cc1Cl [Triclopyr] | > 46
O=S(=O)([O-])c1ccc(O)cc1 [PHENOLSULFONIC ACID] | > 46
O.O.O.[Na+].[Na+].O[Hg]C1=C2OC/3=C/C(=O)/C(=C\C3=C(\C2=CC(=C1[O-])Br)C4=C(C=CC=C4)C([O-])=O)Br [Merbromin] | > 46
O=c1[n-]c(=O)n(Cl)c(=O)n1Cl [Sodium dichloroisocyanurate] | > 46
CC(C)[C@@]1(NC(=O)[C@@H]2C[C@@H]3c4cccc5[nH]cc(c45)C[C@H]3N(C)C2)O[C@@]2(O)[C@@H]3CCCN3C(=O)[C@H](Cc3ccccc3)N2C1=O [Dihydroergocristine] | > 46
O=C(N[C@H](CO)[C@H](O)c1ccc([N+](=O)[O-])cc1)C(Cl)Cl [Chloramphenicol] | > 46
O=C1Nc2ccc(Cl)cc2C(c2ccccc2Cl)=NC1O (centres undefined) [Lorazepam] | > 46
CO[C@H]1/C=C/O[C@@]2(C)Oc3c(C)c(O)c4c(c3C2=O)C2=NC3(CCN(CC(C)C)CC3)NC2=C(NC(=O)/C(C)=C\C=C\[C@H](C)[C@H](O)[C@@H](C)[C@@H](O)[C@@H](C)[C@H](OC(C)=O)[C@@H]1C)C4=O [Rifabutin] | > 46
NCCS [Cysteamine] | > 46
O=C(OCC(COC(=O)c1cccnc1)(COC(=O)c1cccnc1)COC(=O)c1cccnc1)c1cccnc1 [Niceritrol] | > 46
O=NN(CCCl)C(=O)NCCCl [Carmustine] | > 46
C[S+](=O)([O-])c1ccc(C(=O)C2C(=O)CCCC2=O)c([N+](=O)[O-])c1 [Mesotrione] | > 46
CCCCCCCC/C=C\CCCCCCCC(=O)NCc1ccc(O)c(OC)c1 [Olvanil] | > 46
ClCc1ccccc1.O=C1CC2OCC=C3CN4CCC56c7ccccc7N1C5[C@H]2[C@H]3C[C@H]46 (some centres undefined) [STRYCHNINE SULFATE] | > 46

SMILES | IC50 of cell viability [µM]
O=C(O)/C=C(/CC(=O)O)C(=O)O [TRANS-ACONITIC ACID] | > 46
NCC(O)c1ccc(O)cc1 (racemic) [DL-OCTOPAMINE] | > 46
Nc1ccc(Cl)cc1 [p-Chloroaniline] | > 46
CC[C@H](NC(C)C)[C@H](O)C1=CC=C(O)C2=C1\C=C/C(=O)N2 [PROCATEROL] | > 46
CC(C)c1cc2c(cc1[S+](=O)([O-])O)[C@@]1(C)CCC[C@@](C)(C(=O)O)[C@@H]1CC2 [ECABET SODIUM] | > 46
O=C1[C@@H]2C[C@@H]3C[C@H]1C[C@@](O)(C3)C2 [5-Hydroxy-2-adamantanone] | > 46
C=CCCCCCCCCC(=O)O [Undecylenic acid] | > 46
CNC[C@H](O)c1cccc(O)c1 [Fenilefrina] | > 46
C[C@@H]1[C@H](O)[C@@H](C)/C=C/C=C/C=C/C=C/C=C/C=C/C=C/[C@H](O[C@@H]2O[C@H](C)[C@@H](O)[C@H](N)[C@@H]2O)C[C@@H]2O[C@](O)(C[C@@H](O)C[C@@H](O)[C@H](O)CC[C@@H](O)C[C@@H](O)CC(=O)O[C@H]1C)C[C@H](O)[C@H]2C(=O)O [Amphotericin B] | > 46
Cc1ccc(/C(=C\CN2CCCC2)c2cccc(/C=C/C(=O)O)n2)cc1 [Acrivastine] | > 46
COc1ccc2c3c1OC1[C@H](O)CCC4[C@@H](C2)N(C)CC[C@]314 (some centres undefined) [Dihydroisocodeine] | > 46
CCNC(C)Cc1ccc2c(c1)OCO2 (centres undefined) [(?)-N-Ethyl-3,4-methylenedioxyamphetamine] | > 46
CCCCCCCCCCOCC(O)CN (centres undefined) [Decominol] | > 46
CCCCCNC(=N)N/N=C/c1c[nH]c2ccc(OC)cc12 [TEGASEROD] | > 46
CN(C)CCc1c[nH]c2ccc(Cn3cncn3)cc12 [RIZATRIPTAN] | > 46
O.Cl.COC1=C2N(\C=C(C(O)=O)/C(=O)C2=CC(=C1N3C[C@@H]4CCCN[C@@H]4C3)F)C5CC5 [Moxifloxacin Hydrochloride Monohydrate] | > 46
CC(C)(C)C(=O)OCOC(=O)[C@@H]1[N@]2[C@@H](SC1(C)C)[C@H](NC(=O)[C@@H](N)C3=CC=CC=C3)C2=O [Pivampicillin] | > 46
CCCC(CCC)C(=O)OC1C[C@H]2CC[C@@H](C1)[N+]2(C)C (some centres undefined) [ANISOTROPINE METHYLBROMIDE] | > 46
COc1cc([S+](C)[O-])ccc1-c1nc2ncccc2[nH]1 (centres undefined) [SULMAZOLE] | > 46
CC(C)(C)CC(C)(C)c1ccc(O)cc1 [4-(1,1,3,3-Tetramethylbutyl)phenol] | > 46
COc1cc2nc(N(C)CCCNC(=O)[C@H]3CCCO3)nc(N)c2cc1OC [Alfuzosin hydrochloride] | > 46
Oc1cccc(O)c1 [Resorcinol] | > 46
CC(=O)OCC(=O)[C@@]12OC3(CCCC3)OC1CC4C5CCC/6=C/C(=O)/C=C\[C@@]6(C)[C@]5(F)C(O)C[C@@]24C (some centres undefined) [AMCINONIDE] | > 46
C=C1C[C@@H]2[C@H]3CCC4=CC(=O)C=C[C@]4(C)[C@@]3(F)[C@@H](O)C[C@]2(C)[C@]1(O)C(=O)COC(C)=O [Fluprednidene acetate] | > 46

From the supplement of paper PMC3974653
